Assay results as given in ChEMBL document CHEMBL5505994, “Nur77 increases mitophagy and decreases aggregation of α-synuclein by modulating the p-c-Abl/p-PHB2 Y121 in α-synuclein PFF SH-SY5Y cells and mice” (Eur J Med Chem, 2024).
Active and inactive are the calls of the source.

Legend:
SH-SY5Y [1] = experiment: Agonist activity at Nur77-c-Abl-PHB2 pathway in alpha-synuclein preformed fibril-induced human SH-SY5Y cells assessed as reduction in PHB2 phosphorylation at 1 uM treated for 24 hrs by Western blot analysis; assay type: cell-based; conditions: filed as agonist
SH-SY5Y [2] = experiment: Agonist activity at Nur77-c-Abl-PHB2 pathway in alpha-synuclein preformed fibril-induced human SH-SY5Y cells assessed as decrease in p62 expression at 1 uM treated for 24 hrs by Western blot analysis; assay type: cell-based; conditions: filed as agonist
Mus musculus [3] = organism: Mus musculus; experiment: Neuroprotection activity in alpha-synuclein preformed fibril-induced C57BL/6J mouse PD model assessed as decrease in p62 expression in brain at 1 uM treated after 3 month PPF challenge measured after 14 days by Western blot analysis; assay type: functional, organism-based; conditions: time 14.0 day
Mus musculus [4] = organism: Mus musculus; experiment: Neuroprotection activity in alpha-synuclein preformed fibril-induced C57BL/6J mouse PD model assessed as rescue of DA neurons in brain by measuring TH positive neurons at 1 uM treated after 3 month PPF challenge measured after 14 days by immunohistochemistry; assay type: functional, organism-based; conditions: time 14.0 day
Mus musculus [5] = organism: Mus musculus; experiment: Neuroprotection activity in alpha-synuclein preformed fibril-induced C57BL/6J mouse PD model assessed as increase in LC3 level in brain at 1 uM treated after 3 month PPF challenge measured after 14 days by Western blot analysis; assay type: functional, organism-based; conditions: time 14.0 day
SH-SY5Y [6] = experiment: Agonist activity at Nur77-c-Abl-PHB2 pathway in alpha-synuclein preformed fibril-induced human SH-SY5Y cells assessed as increase in ratio of LC3-II/LC3I at 1 uM treated for 24 hrs by Western blot analysis; assay type: cell-based; conditions: filed as agonist
SH-SY5Y [7] = experiment: Agonist activity at Nur77-c-Abl-PHB2 pathway in alpha-synuclein preformed fibril-induced human SH-SY5Y cells assessed as increase in PHB2/LC3 interaction at 1 uM treated for 24 hrs by Co-immunoprecipitation (Co-IP) assay; assay type: cell-based; conditions: filed as agonist
SH-SY5Y [8] = experiment: Agonist activity at Nur77-c-Abl-PHB2 pathway in alpha-synuclein preformed fibril-induced human SH-SY5Y cells assessed as translocation of Nur77 into mitochondria at 1 uM treated for 24 hrs by Western blot analysis; conditions: filed as agonist
SH-SY5Y [9] = experiment: Agonist activity at Nur77-c-Abl-PHB2 pathway in alpha-synuclein preformed fibril-induced human SH-SY5Y cells assessed as interaction with c-Abl at 1 uM treated for 24 hrs by Co-immunoprecipitation (Co-IP) assay; assay type: cell-based; conditions: filed as agonist
Mus musculus [10] = organism: Mus musculus; experiment: Neuroprotection activity in alpha-synuclein preformed fibril-induced C57BL/6J mouse PD model assessed as decrease in phosphorylated c-Abl level in brain at 1 uM treated after 3 month PPF challenge measured after 14 days by Western blot analysis; assay type: functional, organism-based; conditions: time 14.0 day
Mus musculus [11] = organism: Mus musculus; experiment: Neuroprotection activity in alpha-synuclein preformed fibril-induced C57BL/6J mouse PD model assessed as decrease in phosphorylated […] level in brain at 1 uM treated after 3 month PPF challenge measured after 14 days by Western blot analysis; assay type: functional, organism-based; conditions: time 14.0 day
SH-SY5Y [12] = experiment: Agonist activity at Nur77 in alpha-synuclein preformed fibril-induced human SH-SY5Y cells assessed as reduction in alpha-synuclein aggregation at 1 uM treated for 24 hrs by Western blot analysis; assay type: cell-based; conditions: filed as agonist
Mus musculus [13] = organism: Mus musculus; experiment: Neuroprotection activity in alpha-synuclein preformed fibril-induced C57BL/6J mouse PD model assessed as decrease in pS129-alpha-synuclein in SNpc TH positive neurons in brain at 1 uM treated after 3 month PPF challenge measured after 14 days by Western blot analysis; assay type: functional, organism-based; conditions: time 14.0 day
SH-SY5Y [14] = experiment: Agonist activity at Nur77-c-Abl-PHB2 pathway in alpha-synuclein preformed fibril-induced human SH-SY5Y cells assessed as decrease in c-Abl phosphorylation at 1 uM treated for 24 hrs by Western blot analysis; assay type: cell-based; conditions: filed as agonist

Measured: Activity

CCCCCCCC(=O)c1c(O)cc(O)cc1CC(=O)OCC
active: SH-SY5Y [1] | SH-SY5Y [2] | Mus musculus [3] | Mus musculus [4] | Mus musculus [5] | SH-SY5Y [6] | SH-SY5Y [7] | SH-SY5Y [8] | SH-SY5Y [9] | Mus musculus [10] | Mus musculus [11] | SH-SY5Y [12] | Mus musculus [13] | SH-SY5Y [14]
